Experimental data reported in patent publication US4211693A, “Peptides with para-substituted phenylalanine” (The Salk Institute for Biological Studies, priority 1978, dated 1980).
Like-named read-outs stand apart in the source and are kept apart here. Where a SMILES comes first, the peptide text is derived from it. Bridges are numbered along the chain shown (N, C = ends). [ ]: non-standard residue; d: D form. Phe(4-Cl) = N[C@@H](Cc1ccc(Cl)cc1)C(=O)O

Legend:
secretion of insulin = assay type: in vivo, Male Sprague-Dawley-CD rats
Experimental: (§1) In vivo Bioassay: Male Sprague-Dawley-CD rats weighing 180-200 g housed in temperature and humidity controlled quarters with 14 h light and 10 h dark (light 0700-[…]) were used in all experiments. Animals were fed a standard ration and tap water ad libitum. Experiments were carried out at least 5 days after arrival of rats from the supplier between the hours 1400 and 1600. After ether anesthesia, peptides or saline were administered in a volume of 0.2 ml via the external jugular vein. Animals remained anesthetized until the time of blood collection from the portal vein. Blood collection was performed at various times after administration of the peptide or saline. The blood samples were placed into chilled tubes containing 10 mg EDTA and 50 μl of 2 M Benzamidine per ml of blood.
(§2) All experiments were carried on in a randomized block design. Following analysis of variance difference between treatmments were determined by the multiple range tests of Dunnett and Duncan. Potency values were calculated from four or six point bioassays.

secretion of glucagon = assay type: in vivo, Male Sprague-Dawley-CD rats
Experimental: as §1, §2

[1] = test system: secretion of growth hormone
Experimental: GH determinations were performed on tissue culture media utilizing the following reagents: NIAMDD rat GH standard (GH-RP-1), NIAMDD monkey anti-rat GH (GH-Serum-3), and highly purified rat GH for iodination.

[2] = somatostatin = 100, peptide via external jugular vein, blood from portal vein, four or six point bioassays

Structure (SMILES) | Relative potency to inhibit the secretion of INSULIN (secretion of insulin; rat, in vivo) | Relative potency to inhibit the secretion of GLUCAGON (secretion of glucagon; rat, in vivo) | Relative potency to inhibit the secretion of INSULIN (secretion of insulin; [2]) | Relative potency to inhibit the secretion of GLUCAGON (secretion of glucagon; [2]) | Relative potency to inhibit the secretion of GH (growth hormone) ([1]; somatostatin = 100, GH in tissue culture media, four or six point bioassays) | Relative potency to inhibit the secretion of GH (growth hormone) [1]
C[C@@H](O)[C@@H]1NC(=O)[C@H](CCCCN)NC(=O)[C@@H](Cc2c[nH]c3ccccc23)NC(=O)[C@H](Cc2ccccc2)NC(=O)[C@H](Cc2ccc(Cl)cc2)NC(=O)[C@@H](N)CSSC[C@@H](C(=O)O)NC(=O)[C@H](Cc2ccc(Cl)cc2)NC1=O [Des--AA^1,2,4,5,12,13 --[P Cl Phe^6,11]--D-Trp^8 --SS] (H-C[Phe(4-Cl)]F[dW]KT[Phe(4-Cl)]C-OH; disulfide 1-8) | 27 | > 1 | – | – | – | –
C[C@H](N)C(=O)NCC(=O)N[C@H]1CSSC[C@@H](C(=O)O)NC(=O)[C@@H](CO)NC(=O)[C@H]([C@@H](C)O)NC(=O)[C@H](Cc2ccc(Cl)cc2)NC(=O)[C@H]([C@@H](C)O)NC(=O)[C@H](CCCCN)NC(=O)[C@@H](Cc2c[nH]c3ccccc23)NC(=O)[C@H](Cc2ccc(Cl)cc2)NC(=O)[C@H](Cc2ccc(Cl)cc2)NC(=O)[C@H](CCCCN)NC1=O [Des--Asn^5 --[P Cl Phe^6,7,11]--D-Trp^8 --D--Ser^13 --SS] (H-AGCK[Phe(4-Cl)][Phe(4-Cl)][dW]KT[Phe(4-Cl)]T[dS]C-OH; disulfide 3-13) | 127 | > 1 | – | – | – | –
C[C@H](N)C(=O)NCC(=O)N[C@H]1CSSC[C@@H](C(=O)O)NC(=O)[C@H](CO)NC(=O)[C@H]([C@@H](C)O)NC(=O)[C@H](Cc2ccccc2)NC(=O)[C@H]([C@@H](C)O)NC(=O)[C@H](CCCCN)NC(=O)[C@H](Cc2c[nH]c3ccccc23)NC(=O)[C@H](Cc2ccccc2)NC(=O)[C@H](Cc2ccccc2)NC(=O)[C@H](CC(N)=O)NC(=O)[C@H](CCCCN)NC1=O [Somatostatin (SS), Somatostatin, reference compound] | – | – | 100 | 100 | 100 | –
C[C@H](N)C(=O)NCC(=O)N[C@H]1CSSC[C@@H](C(=O)O)NC(=O)[C@H](CO)NC(=O)[C@H]([C@@H](C)O)NC(=O)[C@H](Cc2ccc(Cl)cc2)NC(=O)[C@H]([C@@H](C)O)NC(=O)[C@H](CCCCN)NC(=O)[C@H](Cc2c[nH]c3ccccc23)NC(=O)[C@H](Cc2ccc(Cl)cc2)NC(=O)[C@H](Cc2ccc(Cl)cc2)NC(=O)[C@H](CC(N)=O)NC(=O)[C@H](CCCCN)NC1=O [[P Cl Phe^6,7,11]--SS] | 800 | 900 | – | – | – | 78
C[C@H](N)C(=O)NCC(=O)N[C@H]1CSSC[C@@H](C(=O)O)NC(=O)[C@H](CO)NC(=O)[C@H]([C@@H](C)O)NC(=O)[C@H](Cc2ccccc2)NC(=O)[C@H]([C@@H](C)O)NC(=O)[C@H](CCCCN)NC(=O)[C@H](Cc2c[nH]c3ccccc23)NC(=O)[C@H](Cc2ccccc2)NC(=O)[C@H](Cc2ccc(Cl)cc2)NC(=O)[C@H](CC(N)=O)NC(=O)[C@H](CCCCN)NC1=O [[P Cl Phe^6]--SS] | 100 | 100 | – | – | – | –
C[C@H](N)C(=O)NCC(=O)N[C@H]1CSSC[C@@H](C(=O)O)NC(=O)[C@H](CO)NC(=O)[C@H]([C@@H](C)O)NC(=O)[C@H](Cc2ccccc2)NC(=O)[C@H]([C@@H](C)O)NC(=O)[C@H](CCCCN)NC(=O)[C@@H](Cc2c[nH]c3ccccc23)NC(=O)[C@H](Cc2ccccc2)NC(=O)[C@H](Cc2ccc(I)cc2)NC(=O)[C@H](CC(N)=O)NC(=O)[C@H](CCCCN)NC1=O [[P I Phe^6]--D-Trp^8 --SS] | 100 | 100 | – | – | – | –
C[C@H](N)C(=O)NCC(=O)N[C@H]1CSSC[C@@H](C(=O)O)NC(=O)[C@H](CO)NC(=O)[C@H]([C@@H](C)O)NC(=O)[C@H](Cc2ccccc2)NC(=O)[C@H]([C@@H](C)O)NC(=O)[C@H](CCCCN)NC(=O)[C@@H](Cc2c[nH]c3ccccc23)NC(=O)[C@H](Cc2ccc(I)cc2)NC(=O)[C@H](Cc2ccccc2)NC(=O)[C@H](CC(N)=O)NC(=O)[C@H](CCCCN)NC1=O [[P I Phe^7]--D-Trp^8 --SS] | 100 | 100 | – | – | – | –
C[C@H](N)C(=O)NCC(=O)N[C@H]1CSSC[C@@H](C(=O)O)NC(=O)[C@H](CO)NC(=O)[C@H]([C@@H](C)O)NC(=O)[C@H](Cc2ccc(I)cc2)NC(=O)[C@H]([C@@H](C)O)NC(=O)[C@H](CCCCN)NC(=O)[C@@H](Cc2c[nH]c3ccccc23)NC(=O)[C@H](Cc2ccccc2)NC(=O)[C@H](Cc2ccccc2)NC(=O)[C@H](CC(N)=O)NC(=O)[C@H](CCCCN)NC1=O [[P I Phe^11]--D-Trp^8 --SS] | 33 | 800 | – | – | – | –
C[C@H](N)C(=O)NCC(=O)N[C@H]1CSSC[C@@H](C(=O)O)NC(=O)[C@H](CO)NC(=O)[C@H]([C@@H](C)O)NC(=O)[C@H](Cc2ccc(I)cc2)NC(=O)[C@H]([C@@H](C)O)NC(=O)[C@H](CCCCN)NC(=O)[C@H](Cc2c[nH]c3ccccc23)NC(=O)[C@H](Cc2ccccc2)NC(=O)[C@H](Cc2ccccc2)NC(=O)[C@H](CC(N)=O)NC(=O)[C@H](CCCCN)NC1=O [[P I Phe^11]--SS] | 950 | 900 | – | – | – | 100
